Assay [1] addresses T1, c-Met (Homo sapiens, UniProt P08581). As to the kind of experiment: Z'-LYTE Tyr6 peptide kinase assay, single concentration. In kind it is biochemical.
The target in assay [2] is T1, c-Met. As to the kind of experiment: Z'-LYTE Tyr6 peptide kinase assay, […] ATP, purified c-Met kinase domain. Format: biochemical.

From publication PMC5045260 (Phytotherapy research : PTR, 2016) come the findings set out here.

T1 sequence (P08581 956-1390 limits assumed): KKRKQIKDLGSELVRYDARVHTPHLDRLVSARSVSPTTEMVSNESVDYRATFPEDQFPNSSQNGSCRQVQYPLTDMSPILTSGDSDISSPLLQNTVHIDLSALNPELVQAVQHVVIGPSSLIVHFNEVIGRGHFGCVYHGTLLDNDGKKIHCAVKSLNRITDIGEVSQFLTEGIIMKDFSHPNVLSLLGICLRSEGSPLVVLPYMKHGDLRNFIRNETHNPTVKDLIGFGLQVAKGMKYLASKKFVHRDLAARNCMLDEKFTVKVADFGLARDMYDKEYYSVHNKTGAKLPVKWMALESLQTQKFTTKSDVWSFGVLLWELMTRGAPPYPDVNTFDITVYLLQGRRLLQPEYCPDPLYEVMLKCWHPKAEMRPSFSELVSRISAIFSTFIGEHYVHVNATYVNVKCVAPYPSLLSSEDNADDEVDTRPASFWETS

Turning to `C/C=C(/C=O)[C@@H](CC=O)CC(=O)OCCc1ccc(O)cc1` [oleocanthal], the “Z'-LYTE Tyr6 peptide kinase assay, single concentration (53% reduction at 5 μM),” value in assay [1] is 53% reduction at 5.

One may read the IC50 as the concentration at which inhibition is half-maximal. Low readings indicate greater potency, high ones weaker potency. The compound `Cc1cc(O)c(C=O)c2c1C(=O)Oc1c(C)c(O)c3c(c1O2)C(O)OC3=O` (centres unmarked) [norstictic acid] registered a half-inhibitory concentration (IC50) in assay [2] of 6.5 µM.
